{
  "source": "ChEMBL document CHEMBL1201862",
  "about": "“PubChem BioAssay data set” (2004)",
  "assay_in_all_cases": "NCI-60 cell line screen, 48 h",
  "key": {"SF-539": {"system": "SF-539"}, "MDA-MB-435": {"system": "MDA-MB-435"}, "SN12C": {"system": "SN12C"}, "LOX IMVI": {"system": "LOX IMVI"}, "DU-145": {"system": "DU-145"}, "KM12": {"system": "KM12"}, "NCI-H23": {"system": "NCI-H23"}, "PC-3": {"system": "PC-3"}, "A498": {"system": "A498"}, "SNB-19": {"system": "SNB-19"}, "U-251": {"system": "U-251"}, "HCT-15": {"system": "HCT-15"}, "OVCAR-4": {"system": "OVCAR-4"}, "SK-MEL-2": {"system": "SK-MEL-2"}, "A549": {"system": "A549"}, "SK-OV-3": {"system": "SK-OV-3"}, "UO-31": {"system": "UO-31"}, "SNB-75": {"system": "SNB-75"}, "SR": {"system": "SR"}, "MDA-N": {"system": "MDA-N"}},
  "note": "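Five concentrations, 48 hours, 96-well plates. At the GI50, growth is halved.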 Activity calls are given as the source filed them. No stated cut-off is given here; in the data, active = GI50 up to about 1.1 µM and inactive = higher.",
  "data": [
    {"smiles": "O=C1NCN(c2ccccc2)C12CCN(CCc1ccc3[nH]c(=S)[nH]c3c1)CC2", "values": [
      {"measurement": "GI50", "setting": "SF-539", "result": "22.1 µM (inactive)"},
      {"measurement": "GI50", "setting": "MDA-MB-435", "result": "17.3 µM (inactive)"},
      {"measurement": "GI50", "setting": "SN12C", "result": "36.1 µM (inactive)"},
      {"measurement": "GI50", "setting": "LOX IMVI", "result": "18.5 µM (inactive)"},
      {"measurement": "GI50", "setting": "DU-145", "result": "39.7 µM (inactive)"},
      {"measurement": "GI50", "setting": "KM12", "result": "27.9 µM (inactive)"},
      {"measurement": "GI50", "setting": "NCI-H23", "result": "65.9 µM (inactive)"},
      {"measurement": "GI50", "setting": "PC-3", "result": "24.3 µM (inactive)"},
      {"measurement": "GI50", "setting": "A498", "result": "53.6 µM (inactive)"},
      {"measurement": "GI50", "setting": "SNB-19", "result": "43.5 µM (inactive)"},
      {"measurement": "GI50", "setting": "U-251", "result": "29.4 µM (inactive)"},
      {"measurement": "GI50", "setting": "HCT-15", "result": "> 100", "unit": "µM"},
      {"measurement": "GI50", "setting": "OVCAR-4", "result": "> 100 µM (inactive)"},
      {"measurement": "GI50", "setting": "SK-MEL-2", "result": "20.7 µM (inactive)"},
      {"measurement": "GI50", "setting": "A549", "result": "66.5 µM (inactive)"},
      {"measurement": "GI50", "setting": "SK-OV-3", "result": "> 100 µM (inactive)"}
    ]},
    {"smiles": "N#CC(/C(=N/NC(N)=S)C(=O)Nc1cccc(Cl)c1)c1ccccc1", "note": "(centres undefined)", "values": [
      {"measurement": "GI50", "setting": "UO-31", "result": "> 100 µM (inactive)"},
      {"measurement": "GI50", "setting": "SF-539", "result": "> 100 µM (inactive)"},
      {"measurement": "GI50", "setting": "SN12C", "result": "> 100 µM (inactive)"},
      {"measurement": "GI50", "setting": "SNB-75", "result": "38.8 µM (inactive)"},
      {"measurement": "GI50", "setting": "SR", "result": "> 100 µM (inactive)"},
      {"measurement": "GI50", "setting": "KM12", "result": "> 100 µM (inactive)"},
      {"measurement": "GI50", "setting": "NCI-H23", "result": "> 100 µM (inactive)"},
      {"measurement": "GI50", "setting": "A498", "result": "> 100 µM (inactive)"},
      {"measurement": "GI50", "setting": "SNB-19", "result": "> 100 µM (inactive)"},
      {"measurement": "GI50", "setting": "U-251", "result": "> 100 µM (inactive)"},
      {"measurement": "GI50", "setting": "HCT-15", "result": "> 100", "unit": "µM"},
      {"measurement": "GI50", "setting": "OVCAR-4", "result": "> 100 µM (inactive)"},
      {"measurement": "GI50", "setting": "SK-MEL-2", "result": "> 100 µM (inactive)"},
      {"measurement": "GI50", "setting": "A549", "result": "> 100 µM (inactive)"},
      {"measurement": "GI50", "setting": "SK-OV-3", "result": "> 100 µM (inactive)"}
    ]},
    {"smiles": "COc1cccc(/C=N/C23CC4CC(CC(C4)C2)C3)c1", "values": [
      {"measurement": "GI50", "setting": "UO-31", "result": "> 100 µM (inactive)"},
      {"measurement": "GI50", "setting": "SF-539", "result": "> 100 µM (inactive)"},
      {"measurement": "GI50", "setting": "SN12C", "result": "> 100 µM (inactive)"},
      {"measurement": "GI50", "setting": "SNB-75", "result": "55.5 µM (inactive)"},
      {"measurement": "GI50", "setting": "SR", "result": "> 100 µM (inactive)"},
      {"measurement": "GI50", "setting": "LOX IMVI", "result": "> 100 µM (inactive)"},
      {"measurement": "GI50", "setting": "KM12", "result": "> 100 µM (inactive)"},
      {"measurement": "GI50", "setting": "NCI-H23", "result": "> 100 µM (inactive)"},
      {"measurement": "GI50", "setting": "A498", "result": "> 100 µM (inactive)"},
      {"measurement": "GI50", "setting": "SNB-19", "result": "> 100 µM (inactive)"},
      {"measurement": "GI50", "setting": "U-251", "result": "> 100 µM (inactive)"},
      {"measurement": "GI50", "setting": "HCT-15", "result": "> 100", "unit": "µM"},
      {"measurement": "GI50", "setting": "OVCAR-4", "result": "> 100 µM (inactive)"},
      {"measurement": "GI50", "setting": "SK-MEL-2", "result": "> 100 µM (inactive)"},
      {"measurement": "GI50", "setting": "A549", "result": "> 100 µM (inactive)"},
      {"measurement": "GI50", "setting": "SK-OV-3", "result": "> 100 µM (inactive)"}
    ]},
    {"smiles": "O=C(c1cc(Cl)ccc1Cl)N1CCN(C(=O)c2cc(Cl)ccc2Cl)CC1", "values": [
      {"measurement": "GI50", "setting": "UO-31", "result": "> 100 µM (inactive)"},
      {"measurement": "GI50", "setting": "SF-539", "result": "> 100 µM (inactive)"},
      {"measurement": "GI50", "setting": "SN12C", "result": "> 100 µM (inactive)"},
      {"measurement": "GI50", "setting": "SNB-75", "result": "33.1 µM (inactive)"},
      {"measurement": "GI50", "setting": "SR", "result": "> 100 µM (inactive)"},
      {"measurement": "GI50", "setting": "LOX IMVI", "result": "> 100 µM (inactive)"},
      {"measurement": "GI50", "setting": "DU-145", "result": "> 100 µM (inactive)"},
      {"measurement": "GI50", "setting": "KM12", "result": "> 100 µM (inactive)"},
      {"measurement": "GI50", "setting": "MDA-N", "result": "> 100 µM (inactive)"},
      {"measurement": "GI50", "setting": "NCI-H23", "result": "> 100 µM (inactive)"},
      {"measurement": "GI50", "setting": "PC-3", "result": "> 100 µM (inactive)"},
      {"measurement": "GI50", "setting": "A498", "result": "27 µM (inactive)"},
      {"measurement": "GI50", "setting": "SNB-19", "result": "> 100 µM (inactive)"},
      {"measurement": "GI50", "setting": "U-251", "result": "> 100 µM (inactive)"},
      {"measurement": "GI50", "setting": "HCT-15", "result": "> 100", "unit": "µM"},
      {"measurement": "GI50", "setting": "OVCAR-4", "result": "> 100 µM (inactive)"},
      {"measurement": "GI50", "setting": "A549", "result": "> 100 µM (inactive)"}
    ]}
  ]
}
